Results published in ChEMBL document CHEMBL1681655, “Identification of a new series of non-peptidic NK3 receptor antagonists” (Bioorg Med Chem Lett, 2011).

Columns and labels:
[1] = biological target: T1, Neuromedin-K receptor (Homo sapiens, UniProt P29371); assay: Displacement of [3H]Lu AE93103 from human NK3 receptor expressed in BHK cells; format: cell-based
T1 sequence (P29371 whole entry): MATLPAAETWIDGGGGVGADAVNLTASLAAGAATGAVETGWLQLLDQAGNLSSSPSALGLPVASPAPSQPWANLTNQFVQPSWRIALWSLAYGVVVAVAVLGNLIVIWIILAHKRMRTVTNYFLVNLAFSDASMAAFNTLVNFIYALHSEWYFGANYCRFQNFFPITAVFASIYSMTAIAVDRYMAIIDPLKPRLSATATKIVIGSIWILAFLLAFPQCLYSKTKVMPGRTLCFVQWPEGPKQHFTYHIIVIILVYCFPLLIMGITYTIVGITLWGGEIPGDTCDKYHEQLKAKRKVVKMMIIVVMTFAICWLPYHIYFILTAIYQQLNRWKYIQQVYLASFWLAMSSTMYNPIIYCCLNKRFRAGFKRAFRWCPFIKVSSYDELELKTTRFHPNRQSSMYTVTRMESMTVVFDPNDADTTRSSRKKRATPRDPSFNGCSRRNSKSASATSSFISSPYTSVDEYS

[2] = test system: Liver microsomes; assay: Intrinsic clearance in human liver microsomes; format: ADME, Microsome
[3] = Apparent permeability of the compound in human Caco2 cells; format: ADME, cell-based; conditions: caco-2
[4] = test system: Caco-2; assay: Efflux ratio of permeability from […] in human Caco2 cells; format: ADME, cell-based

Row | SMILES | Ki [1] [nM] | CL [2] [L/min] | Papp [3] [×10⁻⁶ cm/s] | Ratio [4]
1 | CC(=O)NC1(c2ccccc2)CCN(C[C@H]2C[C@]2(C(=O)N(C)Cc2ccccc2)c2ccc(Cl)c(Cl)c2)CC1 | 83 |  |  | 
2 | CC(=O)NC1(c2ccccc2)CCN(C[C@@H]2C[C@@]2(C(=O)N(C)Cc2ccc(F)cc2)c2ccc(Cl)c(Cl)c2)CC1 | 5.8 |  |  | 
3 | CC(=O)NC1(c2ccccc2)CCN(C[C@@H]2C[C@@]2(C(=O)N(C)Cc2ccc(F)cc2)c2ccc(F)cc2)CC1 | 67 |  |  | 
4 | CC(=O)NC1(c2ccccc2)CCN(C[C@@H]2C[C@@]2(C(=O)N(C)Cc2ccc(F)cc2)c2ccc(Cl)cc2)CC1 | 36 |  |  | 
5 | CC(=O)NC1(c2ccccc2)CCN(C[C@@H]2C[C@@]2(C(=O)N(C)Cc2ccc(F)cc2)c2ccc(C)cc2)CC1 | 37 |  |  | 
6 | COc1ccc([C@]2(C(=O)N(C)Cc3ccc(F)cc3)C[C@H]2CN2CCC(NC(C)=O)(c3ccccc3)CC2)cc1 | 350 |  |  | 
7 | CC(=O)NC1(c2ccccc2)CCN(C[C@@H]2C[C@@]2(C(=O)N(C)Cc2ccc(F)cc2)c2ccc(C(F)(F)F)cc2)CC1 | 1000 |  |  | 
8 | CC(=O)NC1(c2ccccc2)CCN(C[C@@H]2C[C@@]2(C(=O)N(C)Cc2ccc(F)cc2)c2ccc(C#N)cc2)CC1 | 270 |  |  | 
9 | CC(=O)NC1(c2ccccc2)CCN(C[C@@H]2C[C@@]2(C(=O)N(C)Cc2ccc(F)cc2)c2cccc(F)c2)CC1 | 140 |  |  | 
10 | CC(=O)NC1(c2ccccc2)CCN(C[C@@H]2C[C@@]2(C(=O)N(C)Cc2ccc(F)cc2)c2cccc(Cl)c2)CC1 | 32 |  |  | 
11 | CC(=O)NC1(c2ccccc2)CCN(C[C@@H]2C[C@@]2(C(=O)N(C)Cc2ccc(F)cc2)c2cccc(C)c2)CC1 | 40 |  |  | 
12 | COc1cccc([C@]2(C(=O)N(C)Cc3ccc(F)cc3)C[C@H]2CN2CCC(NC(C)=O)(c3ccccc3)CC2)c1 | 56 |  |  | 
13 | CC(=O)NC1(c2ccccc2)CCN(C[C@@H]2C[C@@]2(C(=O)N(C)Cc2ccc(F)cc2)c2cccc(C(F)(F)F)c2)CC1 | 210 |  |  | 
14 | CC(=O)NC1(c2ccccc2)CCN(C[C@@H]2C[C@@]2(C(=O)N(C)Cc2ccc(F)cc2)c2cccc(C#N)c2)CC1 | 1900 |  |  | 
15 | CC(=O)NC1(c2ccccc2)CCN(C[C@@H]2C[C@@]2(C(=O)N(C)Cc2ccc(F)cc2)c2ccc(F)c(F)c2)CC1 | 47 |  |  | 
16 | CC(=O)NC1(c2ccccc2)CCN(C[C@@H]2C[C@@]2(C(=O)N(C)Cc2ccc(F)cc2)c2cc(Cl)cc(Cl)c2)CC1 | 90 |  |  | 
17 | CC(=O)NC1(c2ccccc2)CCN(C[C@@H]2C[C@@]2(C(=O)N(C)Cc2ccc(F)cc2)c2ccc(C)c(C)c2)CC1 | 7.3 |  |  | 
18 | CC(=O)NC1(c2ccccc2)CCN(C[C@@H]2C[C@@]2(C(=O)N(C)Cc2ccc(F)cc2)c2ccc3c(c2)OCO3)CC1 | 140 |  |  | 
19 | CC(=O)NC1(c2ccccc2)CCN(C[C@@H]2C[C@]2(C(=O)N(C)Cc2ccc(F)cc2)c2cccs2)CC1 | 93 |  |  | 
20 | CC(=O)NC1(c2ccccc2)CCN(C[C@@H]2C[C@@]2(C(=O)N(C)Cc2ccc(F)cc2)c2ccsc2)CC1 | 110 |  |  | 
21 | CC(=O)N(C)C1(c2ccccc2)CCN(C[C@@H]2C[C@@]2(C(=O)N(C)Cc2ccccc2)c2ccc(Cl)c(Cl)c2)CC1 | 4.2 | 19 | 0.8 | 12
22 | CN(Cc1ccccc1)C(=O)[C@@]1(c2ccc(Cl)c(Cl)c2)C[C@H]1CN1CCC(C(=O)N2CCCCC2)(c2ccccc2)CC1 | 6.1 | > 20 | 0.3 | 17
23 | COC(=O)NC1(c2ccccc2)CCN(C[C@@H]2C[C@@]2(C(=O)N(C)Cc2ccccc2)c2ccc(Cl)c(Cl)c2)CC1 | 1.5 | 6.3 | 0.4 | > 100
24 | CN(C)C(=O)NC1(c2ccccc2)CCN(C[C@@H]2C[C@@]2(C(=O)N(C)Cc2ccccc2)c2ccc(Cl)c(Cl)c2)CC1 | 2.8 | > 20 |  | 
25 | CNC(=O)NC1(c2ccccc2)CCN(C[C@@H]2C[C@@]2(C(=O)N(C)Cc2ccccc2)c2ccc(Cl)c(Cl)c2)CC1 | 5.6 | 6.8 | 0.6 | 42
26 | CN(Cc1ccccc1)C(=O)[C@@]1(c2ccc(Cl)c(Cl)c2)C[C@H]1CN1CCC(NC(N)=O)(c2ccccc2)CC1 | 12 | 2 | 0.6 | 85
27 | CN(Cc1ccccc1)C(=O)[C@@]1(c2ccc(Cl)c(Cl)c2)C[C@H]1CN1CCC(c2ccccc2)(N(C)C(=O)C(N)=O)CC1 | 3.6 | 6.9 | 1.3 | 13

Row | SMILES | Ki [1] [nM] | CL [2] [L/min] | Papp [3] [×10⁻⁶ cm/s] | Ratio [4]
28 | CN(Cc1ccc(F)cc1)C(=O)[C@@]1(c2ccc(Cl)c(Cl)c2)C[C@H]1CN1CCN(CCN2CCOCC2)CC1 | 3.7 | 4.3 |  | 
29 | CN(Cc1ccc(F)cc1)C(=O)[C@@]1(c2ccc(Cl)c(Cl)c2)C[C@H]1CN1CCN(S(=O)(=O)N2CCCC2)CC1 | 5.8 | > 20 |  | 
30 | CN(Cc1ccc(F)cc1)C(=O)[C@@]1(c2ccc(Cl)c(Cl)c2)C[C@H]1CN1CCN(C(=O)CN2CCCCCC2)CC1 | 8.7 | 15 |  | 
31 | CN(Cc1ccc(F)cc1)C(=O)[C@@]1(c2ccc(Cl)c(Cl)c2)C[C@H]1CN1CC(N2CCN(S(=O)(=O)N(C)C)CC2)C1 | 1.9 | 12 |  | 
32 | CC(=O)NC1(c2ccccc2)CCN(CC2CC2(C(=O)N(C)Cc2ccc(C)cc2)c2ccc(Cl)c(Cl)c2)CC1 (racemic) | 7.5 |  |  | 
33 | CC(=O)NC1(c2ccccc2)CCN(CC2CC2(C(=O)N(C)Cc2ccccc2Cl)c2ccc(Cl)c(Cl)c2)CC1 (racemic) | 20 |  |  | 
34 | CC(=O)NC1(c2ccccc2)CCN(CC2CC2(C(=O)N(C)Cc2ccccc2F)c2ccc(Cl)c(Cl)c2)CC1 (racemic) | 18 |  |  | 
35 | CC(=O)NC1(c2ccccc2)CCN(CC2CC2(C(=O)N(C)Cc2ccccc2C)c2ccc(Cl)c(Cl)c2)CC1 (racemic) | 5.3 |  |  | 
36 | COc1ccccc1CN(C)C(=O)C1(c2ccc(Cl)c(Cl)c2)CC1CN1CCC(NC(C)=O)(c2ccccc2)CC1 (racemic) | 14 |  |  | 
37 | CC(=O)NC1(c2ccccc2)CCN(CC2CC2(C(=O)N(C)Cc2cccc(F)c2)c2ccc(Cl)c(Cl)c2)CC1 (racemic) | 12 |  |  | 
38 | CC(=O)NC1(c2ccccc2)CCN(CC2CC2(C(=O)N(C)Cc2cccc(Cl)c2)c2ccc(Cl)c(Cl)c2)CC1 (racemic) | 24 |  |  | 
39 | COc1cccc(CN(C)C(=O)C2(c3ccc(Cl)c(Cl)c3)CC2CN2CCC(NC(C)=O)(c3ccccc3)CC2)c1 (racemic) | 33 |  |  | 
40 | CC(=O)NC1(c2ccccc2)CCN(CC2CC2(C(=O)N(C)Cc2cccc(C(F)(F)F)c2)c2ccc(Cl)c(Cl)c2)CC1 (racemic) | 50 |  |  | 
41 | CC(=O)NC1(c2ccccc2)CCN(CC2CC2(C(=O)N(C)Cc2ccc(Cl)cc2)c2ccc(Cl)c(Cl)c2)CC1 (racemic) | 11 |  |  | 
42 | COc1ccc(CN(C)C(=O)C2(c3ccc(Cl)c(Cl)c3)CC2CN2CCC(NC(C)=O)(c3ccccc3)CC2)cc1 (racemic) | 15 |  |  | 
43 | CC(=O)NC1(c2ccccc2)CCN(CC2CC2(C(=O)N(C)Cc2ccc(C(F)(F)F)cc2)c2ccc(Cl)c(Cl)c2)CC1 (racemic) | 4.6 |  |  | 
44 | CSc1ccc(CN(C)C(=O)C2(c3ccc(Cl)c(Cl)c3)CC2CN2CCC(NC(C)=O)(c3ccccc3)CC2)cc1 (racemic) | 28 |  |  | 
45 | CC(=O)NC1(c2ccccc2)CCN(CC2CC2(C(=O)N(C)Cc2cccc(Cl)c2Cl)c2ccc(Cl)c(Cl)c2)CC1 (racemic) | 24 |  |  | 
46 | CC(=O)NC1(c2ccccc2)CCN(CC2CC2(C(=O)N(C)Cc2ccc(Cl)cc2Cl)c2ccc(Cl)c(Cl)c2)CC1 (racemic) | 16 |  |  | 
47 | CC(=O)NC1(c2ccccc2)CCN(CC2CC2(C(=O)N(C)Cc2ccc(Cl)c(Cl)c2)c2ccc(Cl)c(Cl)c2)CC1 (racemic) | 13 |  |  | 
48 | CC(=O)NC1(c2ccccc2)CCN(CC2CC2(C(=O)N(C)Cc2cc(Cl)cc(Cl)c2)c2ccc(Cl)c(Cl)c2)CC1 (racemic) | 23 |  |  | 
49 | COc1ccc(CN(C)C(=O)C2(c3ccc(Cl)c(Cl)c3)CC2CN2CCC(NC(C)=O)(c3ccccc3)CC2)c(OC)c1 (racemic) | 5.9 |  |  | 
50 | COc1ccc(CN(C)C(=O)C2(c3ccc(Cl)c(Cl)c3)CC2CN2CCC(NC(C)=O)(c3ccccc3)CC2)cc1OC (racemic) | 67 |  |  | 
51 | COc1cc(CN(C)C(=O)C2(c3ccc(Cl)c(Cl)c3)CC2CN2CCC(NC(C)=O)(c3ccccc3)CC2)cc(OC)c1 (racemic) | 32 |  |  | 
52 | CC(=O)NC1(c2ccccc2)CCN(CC2CC2(C(=O)N(C)Cc2cccs2)c2ccc(Cl)c(Cl)c2)CC1 (racemic) | 70 |  |  | 
53 | CC(=O)NC1(c2ccccc2)CCN(CC2CC2(C(=O)N(C)Cc2ccsc2)c2ccc(Cl)c(Cl)c2)CC1 (racemic) | 14 |  |  | 
